Ends that are not written are not given here.
System: rats
Experiment: Behavioral arousal, locomotion and grooming behavior
Conditions: rat, in vivo

## MAGILSG [PEP7, MAGILSG (SEQ ID NO: 1)]
  Effect on behavioral arousal, locomotion and grooming behavior: did not have an effect

— patent publication US9944677B2, “Selective inhibitor of angiotensin II” (GEORGETOWN UNIVERSITY, priority 2013, dated 2018)
